# Like-named read-outs stand apart in the source and are kept apart here.
# Legend:
# [1] = tested on: Pseudomonas aeruginosa; experiment: MIC, CLSI broth microdilution, Pseudomonas aeruginosa panel; format: cell-based; conditions: Pseudomonas aeruginosa, read-out: MIC
# Experimental: (§1) Minimum inhibitory concentrations (MIC) were determined by reference Clinical and Laboratory Standards Institute (CLSI) broth microdilution methods per M7-A7 [2006]. Quality control ranges utilizing E. coli ATCC 25922, P. aeruginosa ATCC 27853 and S. aureus ATCC 29213, and interpretive criteria for comparator agents were as published in CLSI M100-S17 [2007]. Briefly, serial two-fold dilutions of the test compounds were prepared at 2× concentration in Mueller Hinton Broth. The compound dilutions were mixed in 96-well assay plates in a 1:1 ratio with bacterial inoculum. The inoculum was prepared by suspension of a colony from an agar plate that was prepared the previous day. Bacteria were suspended in sterile saline and added to each assay plate to obtain a final concentration of 5×10^5 CFU/mL. The plates were incubated at 35 C for 20 hours in ambient air.
# The MIC panel presented in Table 1 contains 27 isolates of Pseudomonas aeruginosa: strains 1-22 are clinical isolates from around the world collected between 2004-2007 which contain representative resistance mechanisms commonly found in Pseudomonas, such as the AAC(6′)-I, AAC(6′)-II, APH(3′)-IIb, ANT(2″)-I, and perm/efflux; strains 23-27 are susceptible.
# [2] = tested on: Acinetobacter baumannii; experiment: MIC, CLSI broth microdilution, Acinetobacter baumannii panel; format: cell-based; conditions: Acinetobacter baumannii, read-out: MIC
# Experimental: as §1
# The MIC panel presented in Table 2 contains 29 isolates of Acinetobacter baumannii: strains 1-24 are clinical isolates from around the world collected between 2004-2007 which contain representative resistance mechanisms commonly found in Acinetobacter baumannii, such as AAC(3)-I and II, AAC(6′)-I, ANT(2″)-I, APH(3′)-VI, and perm/efflux; strains 25-29 are susceptible.
# [3] = P. aeruginosa clinical strain 1 (resistant clinical isolate)
# [4] = P. aeruginosa clinical strain 2 (resistant clinical isolate)
# [5] = P. aeruginosa clinical strain 3 (resistant clinical isolate)
# [6] = P. aeruginosa clinical strain 4 (resistant clinical isolate)
# [7] = P. aeruginosa clinical strain 5 (resistant clinical isolate)
# [8] = P. aeruginosa clinical strain 6 (resistant clinical isolate)
# [9] = P. aeruginosa clinical strain 7 (resistant clinical isolate)
# [10] = P. aeruginosa clinical strain 8 (resistant clinical isolate)
# [11] = P. aeruginosa clinical strain 9 (resistant clinical isolate)
# [12] = P. aeruginosa clinical strain 10 (resistant clinical isolate)
# [13] = P. aeruginosa clinical strain 11 (resistant clinical isolate)
# [14] = P. aeruginosa clinical strain 12 (resistant clinical isolate)
# [15] = P. aeruginosa clinical strain 13 (resistant clinical isolate)
# [16] = P. aeruginosa clinical strain 14 (resistant clinical isolate)
# [17] = P. aeruginosa clinical strain 15 (resistant clinical isolate)
# [18] = P. aeruginosa clinical strain 16 (resistant clinical isolate)
# [19] = P. aeruginosa clinical strain 17 (resistant clinical isolate)
# [20] = P. aeruginosa clinical strain 18 (resistant clinical isolate)
# [21] = P. aeruginosa clinical strain 19 (resistant clinical isolate)
# [22] = P. aeruginosa clinical strain 20 (resistant clinical isolate)
# [23] = P. aeruginosa clinical strain 21 (resistant clinical isolate)
# [24] = P. aeruginosa clinical strain 22 (resistant clinical isolate)
# [25] = P. aeruginosa strain 23 (susceptible)
# [26] = P. aeruginosa strain 24 (susceptible)
# [27] = P. aeruginosa strain 25 (susceptible)
# [28] = P. aeruginosa strain 26 (susceptible)
# [29] = P. aeruginosa strain 27 (susceptible)
# [30] = A. baumannii clinical strain 1 (resistant clinical isolate)
# [31] = A. baumannii clinical strain 2 (resistant clinical isolate)
# [32] = A. baumannii clinical strain 3 (resistant clinical isolate)
# [33] = A. baumannii clinical strain 4 (resistant clinical isolate)
# [34] = A. baumannii clinical strain 5 (resistant clinical isolate)
# [35] = A. baumannii clinical strain 6 (resistant clinical isolate)
# [36] = A. baumannii clinical strain 7 (resistant clinical isolate)
# [37] = A. baumannii clinical strain 8 (resistant clinical isolate)
# [38] = A. baumannii clinical strain 9 (resistant clinical isolate)
# [39] = A. baumannii clinical strain 10 (resistant clinical isolate)
# [40] = A. baumannii clinical strain 11 (resistant clinical isolate)
# [41] = A. baumannii clinical strain 12 (resistant clinical isolate)
# [42] = A. baumannii clinical strain 13 (resistant clinical isolate)
# [43] = A. baumannii clinical strain 14 (resistant clinical isolate)
# [44] = A. baumannii clinical strain 15 (resistant clinical isolate)
# [45] = A. baumannii clinical strain 16 (resistant clinical isolate)
# [46] = A. baumannii clinical strain 17 (resistant clinical isolate)
# [47] = A. baumannii clinical strain 18 (resistant clinical isolate)
# [48] = A. baumannii clinical strain 19 (resistant clinical isolate)
# [49] = A. baumannii clinical strain 20 (resistant clinical isolate)
# [50] = A. baumannii clinical strain 21 (resistant clinical isolate)
# [51] = A. baumannii clinical strain 22 (resistant clinical isolate)
# [52] = A. baumannii clinical strain 23 (resistant clinical isolate)
# [53] = A. baumannii clinical strain 24 (resistant clinical isolate)
# [54] = A. baumannii strain 25 (susceptible)
# [55] = A. baumannii strain 26 (susceptible)
# [56] = A. baumannii strain 27 (susceptible)
# [57] = A. baumannii strain 28 (susceptible)
# [58] = A. baumannii strain 29 (susceptible)
smiles,measurement,setting,value
"NCC[C@H](O)C(=O)N[C@@H]1C[C@H](N)[C@@H](O[C@H]2O[C@H](CN)[C@@H](O)[C@H](O)[C@H]2O)[C@H](O)[C@H]1O[C@H]1O[C@H](CO)[C@@H](O)[C@H](N)[C@H]1O [AMK, amikacin]",MIC,[1]; [3],≥ 32 µg/mL
same,MIC,[1]; [4],≥ 32 µg/mL
same,MIC,[1]; [5],≥ 32 µg/mL
same,MIC,[1]; [6],≥ 32 µg/mL
same,MIC,[1]; [7],≥ 32 µg/mL
same,MIC,[1]; [8],8 to 16 µg/mL
same,MIC,[1]; [9],1 to 8 µg/mL
same,MIC,[1]; [10],16 to 32 µg/mL
same,MIC,[1]; [11],8 to 16 µg/mL
same,MIC,[1]; [12],16 to 32 µg/mL
same,MIC,[1]; [13],≤ 1 µg/mL
same,MIC,[1]; [14],≤ 1 µg/mL
same,MIC,[1]; [15],1 to 8 µg/mL
same,MIC,[1]; [16],1 to 8 µg/mL
same,MIC,[1]; [17],8 to 16 µg/mL
same,MIC,[1]; [18],≥ 32 µg/mL
same,MIC,[1]; [19],≥ 32 µg/mL
same,MIC,[1]; [20],≥ 32 µg/mL
same,MIC,[1]; [21],≥ 32 µg/mL
same,MIC,[1]; [22],≥ 32 µg/mL
same,MIC,[1]; [23],16 to 32 µg/mL
same,MIC,[1]; [24],16 to 32 µg/mL
same,MIC,[1]; [25],1 to 8 µg/mL
same,MIC,[1]; [26],1 to 8 µg/mL
same,MIC,[1]; [27],1 to 8 µg/mL
same,MIC,[1]; [28],1 to 8 µg/mL
same,MIC,[1]; [29],≤ 1 µg/mL
same,MIC,[2]; [30],≥ 32 µg/mL
same,MIC,[2]; [31],≥ 32 µg/mL
same,MIC,[2]; [32],8 to 16 µg/mL
same,MIC,[2]; [33],16 to 32 µg/mL
same,MIC,[2]; [34],≥ 32 µg/mL
same,MIC,[2]; [35],≥ 32 µg/mL
same,MIC,[2]; [36],≥ 32 µg/mL
same,MIC,[2]; [37],≥ 32 µg/mL
same,MIC,[2]; [38],1 to 8 µg/mL
same,MIC,[2]; [39],1 to 8 µg/mL
same,MIC,[2]; [40],≥ 32 µg/mL
same,MIC,[2]; [41],≥ 32 µg/mL
same,MIC,[2]; [42],≥ 32 µg/mL
same,MIC,[2]; [43],≥ 32 µg/mL
same,MIC,[2]; [44],≥ 32 µg/mL
same,MIC,[2]; [45],≥ 32 µg/mL
same,MIC,[2]; [46],≥ 32 µg/mL
same,MIC,[2]; [47],≥ 32 µg/mL
same,MIC,[2]; [48],1 to 8 µg/mL
same,MIC,[2]; [49],1 to 8 µg/mL
same,MIC,[2]; [50],≥ 32 µg/mL
same,MIC,[2]; [51],≥ 32 µg/mL
same,MIC,[2]; [52],≥ 32 µg/mL
same,MIC,[2]; [53],≥ 32 µg/mL
same,MIC,[2]; [54],≤ 1 µg/mL
same,MIC,[2]; [55],1 to 8 µg/mL
same,MIC,[2]; [56],1 to 8 µg/mL
same,MIC,[2]; [57],1 to 8 µg/mL
same,MIC,[2]; [58],≤ 1 µg/mL
NCC[C@H](O)C(=O)N[C@@H]1C[C@H](N)[C@@H](O[C@H]2O[C@H](CNCCO)[C@@H](O)C[C@H]2N)[C@H](O[C@@H]2O[C@H](CO)[C@@H](O[C@H]3O[C@@H](CN)[C@@H](O)[C@H](O)[C@H]3N)[C@H]2O)[C@H]1O [Compound 18],MIC,[1]; [3],≤ 1 µg/mL
same,MIC,[1]; [4],≤ 1 µg/mL
same,MIC,[1]; [5],1 to 8 µg/mL
same,MIC,[1]; [6],1 to 8 µg/mL
same,MIC,[1]; [7],1 to 8 µg/mL
same,MIC,[1]; [8],1 to 8 µg/mL
same,MIC,[1]; [9],≤ 1 µg/mL
same,MIC,[1]; [10],8 to 16 µg/mL
same,MIC,[1]; [11],1 to 8 µg/mL
same,MIC,[1]; [12],8 to 16 µg/mL
same,MIC,[1]; [13],≤ 1 µg/mL
same,MIC,[1]; [14],1 to 8 µg/mL
same,MIC,[1]; [15],16 to 32 µg/mL
same,MIC,[1]; [16],1 to 8 µg/mL
same,MIC,[1]; [17],1 to 8 µg/mL
same,MIC,[1]; [18],1 to 8 µg/mL
same,MIC,[1]; [19],1 to 8 µg/mL
same,MIC,[1]; [20],1 to 8 µg/mL
same,MIC,[1]; [21],16 to 32 µg/mL
same,MIC,[1]; [22],16 to 32 µg/mL
same,MIC,[1]; [23],8 to 16 µg/mL
same,MIC,[1]; [24],1 to 8 µg/mL
same,MIC,[1]; [25],≤ 1 µg/mL
same,MIC,[1]; [26],≤ 1 µg/mL
same,MIC,[1]; [27],≤ 1 µg/mL
same,MIC,[1]; [28],≤ 1 µg/mL
same,MIC,[1]; [29],≤ 1 µg/mL
same,MIC,[2]; [30],1 to 8 µg/mL
same,MIC,[2]; [31],8 to 16 µg/mL
same,MIC,[2]; [32],1 to 8 µg/mL
same,MIC,[2]; [33],16 to 32 µg/mL
same,MIC,[2]; [34],1 to 8 µg/mL
same,MIC,[2]; [35],1 to 8 µg/mL
same,MIC,[2]; [36],≤ 1 µg/mL
same,MIC,[2]; [37],1 to 8 µg/mL
same,MIC,[2]; [38],≤ 1 µg/mL
same,MIC,[2]; [39],1 to 8 µg/mL
same,MIC,[2]; [40],≤ 1 µg/mL
same,MIC,[2]; [41],≤ 1 µg/mL
same,MIC,[2]; [42],≤ 1 µg/mL
same,MIC,[2]; [43],1 to 8 µg/mL
same,MIC,[2]; [44],≤ 1 µg/mL
same,MIC,[2]; [45],1 to 8 µg/mL
same,MIC,[2]; [46],1 to 8 µg/mL
same,MIC,[2]; [47],8 to 16 µg/mL
same,MIC,[2]; [48],1 to 8 µg/mL
same,MIC,[2]; [49],8 to 16 µg/mL
same,MIC,[2]; [50],≤ 1 µg/mL
same,MIC,[2]; [51],16 to 32 µg/mL
same,MIC,[2]; [52],≤ 1 µg/mL
same,MIC,[2]; [53],16 to 32 µg/mL
same,MIC,[2]; [54],≤ 1 µg/mL
same,MIC,[2]; [55],1 to 8 µg/mL
same,MIC,[2]; [56],≤ 1 µg/mL
same,MIC,[2]; [57],≤ 1 µg/mL
same,MIC,[2]; [58],≤ 1 µg/mL

# Source: patent US8653041B2, “Antibacterial aminoglycoside analogs” (Achaogen, Inc., priority 2010, dated 2014)
